For ten compounds, IC50 and viability results are on record in ChEMBL document CHEMBL5385941, “Synthesis and biological evaluation of hydantoin derivatives as potent antiplasmodial agents” (Bioorg Med Chem Lett, 2024).

Where only a bound is given, the exact number is not on record here.

Series [1] in a line: Cytotoxicity against human MRC5 cells assessed as cell growth inhibition measured after 24 hrs by MTT assay. Format: toxicity, cell-based. (Tetrazolium assays rely on reduction of a dye to a coloured formazan, in cell work by metabolically active cells.)
Series [2] in a line: Cytotoxicity against human MRC5 cells assessed as cell viability at 3.125 to 100 uM measured after 24 hrs by MTT assay relative to control. Format: toxicity, cell-based. As to conditions: dose 3.125-100 µM, read-out: Activity.
In series [3] the test system is Plasmodium falciparum. Briefly: Antiplasmodial activity against Plasmodium falciparum 3D7 trophozoites assessed as parasite growth inhibition. Format: functional, organism-based.

A word on the IC50: it is the concentration that gives 50% inhibition. `C[C@H]1NC(=O)NC1=O`: the 50% inhibitory concentration (IC50) at 24 h in series [1] was over 100 µM. Further, the viability at 24 h, up to 100 µM in series [2] is over 80%. The IC50 in series [3] is 916 µM.

Consider `O=C1NC(=O)[C@@H](c2ccccc2)N1`, for which the IC50 at 24 h in series [1] was over 100 µM. Moreover, the viability at 24 h, up to 100 µM in series [2] is over 80%. The IC50 in series [3] was over 1000 µM.

For `CSCC[C@H]1NC(=O)NC1=O`, the IC50 at 24 h in series [1] is over 100 µM. In addition, the viability at 24 h, up to 100 µM in series [2] was over 80%. In addition, the IC50 in series [3] is over 1000 µM.

With `Cc1ccc(S(=O)(=O)N2C(=O)CNC2=O)cc1`, in series [1], the IC50 at 24 h was over 100 µM. Further, the viability at 24 h, up to 100 µM in series [2] was over 80%. Moreover, the IC50 in series [3] came out at 0.00397 µM.

With `CC(C)C(=O)N1C(=O)N[C@H](c2ccccc2)C1=O`, the IC50 at 24 h in series [1] was over 100 µM. Also, the viability at 24 h, up to 100 µM in series [2] was over 80%. Further, the IC50 in series [3] was 27.5 µM.

`O=C1CNC(=O)N1C(=O)c1cc([N+](=O)[O-])cc([N+](=O)[O-])c1`: the concentration for half-maximal inhibition (IC50) at 24 h in series [1] was over 100 µM. Besides, the viability at 24 h, up to 100 µM in series [2] is over 80%. For the same compound, the IC50 in series [3] is 625 µM.

On to `CC(C)C(=O)N1C(=O)CNC1=O`, for which the IC50 at 24 h in series [1] was over 100 µM. The viability at 24 h, up to 100 µM in series [2] is over 80%. Besides, the IC50 in series [3] was over 1000 µM.

Turning to `O=C1CNC(=O)N1C(=O)Cc1ccccc1`, in series [1], the IC50 at 24 h is over 100 µM. Also, in series [2], the viability at 24 h, up to 100 µM is over 80%. In addition, the IC50 in series [3] was determined as 748 µM.

With `CC(=O)N1C(=O)CNC1=O`, the IC50 at 24 h in series [1] is over 100 µM. Also, the viability at 24 h, up to 100 µM in series [2] was over 80%. The IC50 in series [3] amounted to 147 µM.

`O=C1CNC(=O)N1` [HYDANTOIN]: the IC50 at 24 h in series [1] is over 100 µM. In series [2], the viability at 24 h, up to 100 µM is over 80%. Besides, the IC50 in series [3] was 623 µM.
